Activity calls are given as the source filed them. No cut-off for these calls is given here.
Assays:
MDA-MB-231 [1] = test: Inhibition of serum-induced cell migration of human MDA-MB-231 cells incubated for 16 hrs by Boyden chamber assay; assay type: functional, cell-based; conditions: MDA-MB-231, 16 h
MDA-MB-231 [2] = test: Antiangiogenesis activity against luciferase-tagged human MDA-MB-231 cells xenografted in BALB/c mouse assessed as reduction in number of vessels surrounding tumor nodules by measuring CD31 expression at 10 mg/kg/3 days, ip measured after 8 weeks by immunostaining; assay type: functional, organism-based
[3] = Toxicity in transgenic zebrafish embryos assessed as effect on gross morphology at 20 uM measured at 30 hrs postfertilization by fluorescence microscopy; design: species or system Danio rerio; conditions: in vivo
[4] = molecular target: T1, CMP-N-acetylneuraminate-beta-1,4-galactoside alpha-2,3-sialyltransferase (Rattus norvegicus, UniProt Q02734); test: Inhibition of rat alpha-2,3-N-ST3GALIII assessed as reduction in sialylated-product formation using Gal-beta1-4Glc and CMP-NeuSAc incubated for 1.5 hrs by reverse-phase HPLC analysis
T1 sequence (Q02734 whole entry): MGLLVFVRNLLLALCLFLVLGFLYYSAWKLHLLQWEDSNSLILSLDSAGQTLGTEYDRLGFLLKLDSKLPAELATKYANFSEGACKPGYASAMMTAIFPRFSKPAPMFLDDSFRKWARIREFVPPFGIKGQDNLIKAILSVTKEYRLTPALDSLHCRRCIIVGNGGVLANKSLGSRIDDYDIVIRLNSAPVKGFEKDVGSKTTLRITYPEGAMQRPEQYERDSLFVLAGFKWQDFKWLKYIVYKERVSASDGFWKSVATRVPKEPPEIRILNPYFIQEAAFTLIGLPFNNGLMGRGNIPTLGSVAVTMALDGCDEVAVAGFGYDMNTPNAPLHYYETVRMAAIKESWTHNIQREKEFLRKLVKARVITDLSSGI

[5] = Selectivity ratio of IC50 for of inhibition of rat alpha-2,3-O-ST3GALI to IC50 for inhibition of human alpha-2,6-ST6GAL1
MDA-MB-231 [6] = test: Inhibition of Sialyltransferase in human MDA-MB-231 cells assessed as reduction in IKKalpha/beta Ser176/180 phosphorylation level at 10 to 20 uM incubated for 48 hrs by immunoblot analysis; assay type: cell-based; conditions: dose 10-20 µM
[7] = Apparent permeability at pH 7.4 by PAMPA

## C[C@H](CCC(=O)OCCOCCOCCN=[N+]=[N-])[C@H]1CC[C@H]2[C@@H]3CC[C@@H]4C[C@H](OC(=O)[C@H](CC(=O)O)Nc5ccc([N+](=O)[O-])c6nonc56)CC[C@]4(C)[C@H]3CC[C@]12C
MDA-MB-231 [1]
  IC50: 10.6 µM
MDA-MB-231 [2]
  Activity: Active
[3]
  Activity: Non-Toxic
[4]
  IC50: 1.74 µM
[5]
  Ratio IC50: > 139
MDA-MB-231 [6]
  inhibition: Active
[7]
  Papp: 3.6 ×10⁻⁶ cm/s
